We go through 26 compounds from patent US20140135319A1, “6-SUBSTITUTED IMIDAZOPYRAZINES FOR USE AS MPS-1 AND TKK INHIBITORS IN THE TREATMENT OF HYPERPROLIFERATIVE DISORDERS” (BAYER INTELLECTUAL PROPERTY GMBH, priority 2010, published 2014).

The experiment addresses T1, human kinase Mps-1 (Homo sapiens, UniProt P33981).
T1 construct: N-terminally GST-tagged human full length recombinant Mps-1 kinase; GST (N); purchased Invitrogen, Karslruhe, Germany PV4071
T1 sequence (P33981 1-857): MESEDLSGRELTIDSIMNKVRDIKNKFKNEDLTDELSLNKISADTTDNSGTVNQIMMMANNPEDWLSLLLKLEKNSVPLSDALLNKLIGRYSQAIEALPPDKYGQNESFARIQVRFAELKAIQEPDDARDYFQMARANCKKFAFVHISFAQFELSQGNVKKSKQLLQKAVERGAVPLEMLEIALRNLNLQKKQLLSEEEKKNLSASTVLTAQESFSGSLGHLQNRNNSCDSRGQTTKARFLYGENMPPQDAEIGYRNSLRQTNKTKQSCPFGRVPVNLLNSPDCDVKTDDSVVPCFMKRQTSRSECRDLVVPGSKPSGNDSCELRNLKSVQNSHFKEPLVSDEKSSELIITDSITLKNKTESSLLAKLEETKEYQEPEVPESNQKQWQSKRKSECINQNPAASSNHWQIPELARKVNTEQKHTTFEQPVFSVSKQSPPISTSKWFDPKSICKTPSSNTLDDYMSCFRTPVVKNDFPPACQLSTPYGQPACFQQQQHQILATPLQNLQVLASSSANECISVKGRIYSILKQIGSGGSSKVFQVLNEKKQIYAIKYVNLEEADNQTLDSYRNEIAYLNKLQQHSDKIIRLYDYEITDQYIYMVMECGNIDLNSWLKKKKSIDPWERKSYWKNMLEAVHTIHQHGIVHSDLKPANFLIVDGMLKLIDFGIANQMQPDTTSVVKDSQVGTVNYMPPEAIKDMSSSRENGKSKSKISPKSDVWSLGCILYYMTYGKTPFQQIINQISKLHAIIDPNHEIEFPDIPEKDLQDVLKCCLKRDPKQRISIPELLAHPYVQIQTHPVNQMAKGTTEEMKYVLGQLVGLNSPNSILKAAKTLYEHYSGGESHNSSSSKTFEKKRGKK
Nature of the experiment: Mps-1 kinase assay (TR-FRET). The following applies: GST-tagged human full length recombinant Mps-1; 10 μM ATP; 1 μM peptide substrate; 60 min at 22° C. It is filed as biochemical. Put shortly:
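TR-FRET read-out: after 1 h binding at 22° C, Eu-labelled anti-phospho-Ser/Thr antibody transfers to SA-XLent on the phosphorylated biotinylated peptide. The enzyme is GST-tagged full-length human Mps-1, typically about 1 nM final, in the linear range.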
(Time-resolved FRET reads energy transfer from a long-lived donor to a nearby acceptor.)
`NCC#CCCNc1nc(-c2ccccc2)cn2c(-c3ccc(C(=O)NC4CC4)cc3)cnc12` [Example 4-1, 4-{8-[(5-Aminopent-3-yn-1-yl)amino]-6-phenylimidazo[1,2-a]pyrazin-3-yl}-N-cyclopropylbenzamide]: the 50% inhibitory concentration (IC50) (usually the concentration that inhibits the measured activity by half) was determined as 10.8 nM.

Regarding `NC/C=C/CCNc1nc(-c2ccccc2)cn2c(-c3ccc(C(=O)NC4CC4)cc3)cnc12` [Example 4-2, 4-(8-{[(3E)-5-aminopent-3-en-1-yl]amino}-6-phenylimidazo[1,2-a]pyrazin-3-yl)-N-cyclopropylbenzamide], the half-maximal inhibitory concentration (IC50) turned out to be 4.4 nM.

As for `NC/C=C\CCNc1nc(-c2ccccc2)cn2c(-c3ccc(C(=O)NC4CC4)cc3)cnc12` [Example 4-3, 4-(8-{[(3Z)-5-aminopent-3-en-1-yl]amino}-6-phenylimidazo[1,2-a]pyrazin-3-yl)-N-cyclopropylbenzamide], the IC50 stood at 4.6 nM.

For `CC(C)CNc1nc(C#N)cn2c(-c3ccc(C(=O)NC4CC4)cc3)cnc12` [Example 5-1, 4-{6-cyano-8-[(2-methylpropyl)amino]imidazo[1,2-a]pyrazin-3-yl}-N-cyclopropyl benzamide], the 50% inhibitory concentration (IC50) was determined as 55.1 nM.

Take `Cc1cc(-c2cnc3c(NCC(C)C)nc(-c4ccncc4)cn23)ccc1C(=O)NC1CC1` [Example 6-1, N-cyclopropyl-2-methyl-4-{8-[(2-methylpropyl)amino]-6-(pyridin-4-yl)imidazo[1,2-a]pyrazin-3-yl}benzamide]: the IC50 was found to be 1.5 nM.

On to `Cc1cc(-c2cnc3c(NCCC(F)(F)F)nc(C4=CCOCC4)cn23)ccc1C(=O)NC1CC1` [Example 6-2, N-cyclopropyl-4-{6-(3,6-dihydro-2H-pyran-4-yl)-8-[(3,3,3-trifluoro-propyl)amino]imidazo[1,2-a]pyrazin-3-yl}-2-methylbenzamide], for which the IC50 worked out at 6.5 nM.

Regarding `Cc1cc(-c2cnc3c(NCC4CC4C)nc(-c4ccc(F)cc4)cn23)ccc1C(=O)NC1CC1` (centres unmarked) [Example 6-3, N-cyclopropyl-4-[6-(4-fluorophenyl)-8-{[(2-methylcyclopropyl)methyl]amino}imidazo[1,2-a]pyrazin-3-yl]-2-methylbenzamide], the IC50 was found to be 10.4 nM.

Take `Cc1cc(-c2cnc3c(NCC4CCCO4)nc(C4=CCOCC4)cn23)ccc1C(=O)NC1CC1` (centres unmarked) [Example 6-4, N-cyclopropyl-4-{6-(3,6-dihydro-2H-pyran-4-yl)-8-[(tetrahydrofuran-2-ylmethyl)amino]imidazo[1,2-a]pyrazin-3-yl}-2-methylbenzamide]: the IC50 was 35.7 nM.

For the compound `Cc1cc(-c2cnc3c(NCC(C)C)nc(C4=CCOCC4)cn23)ccc1C(=O)NC1CC1` [Example 6-5, N-cyclopropyl-4-{6-(3,6-dihydro-2H-pyran-4-y1)-8-[(2-methylpropyl)amino]imidazo[1,2-a]pyrazin-3-yl}-2-methylbenzamide], the IC50 was found to be 9.3 nM.

In the case of `Cc1cc(-c2cnc3c(NCCC(C)CO)nc(C4=CCOCC4)cn23)ccc1C(=O)NC1CC1` (centres unmarked) [Example 6-6, N-cyclopropyl-4-{6-(3,6-dihydro-2H-pyran-4-yl)-8-[(4-hydroxy-3-methylbutyl)amino]imidazo[1,2-a]pyrazin-3-yl}-2-methylbenzamide], the IC50 worked out at 20.6 nM.

With `Cc1cc(-c2cnc3c(NCC4CN(C)CCO4)nc(C4=CCOCC4)cn23)ccc1C(=O)NC1CC1` (centres unmarked) [Example 6-7, N-cyclopropyl-4-[6-(3,6-dihydro-2H-pyran-4-yl)-8-{[(4-methyl-morpholin-2-yl)methyl]amino}imidazo[1,2-a]pyrazin-3-y1]-2-methylbenzamide], the IC50 came to 294 nM.

Take `Cc1cc(-c2cnc3c(NCC4CCC(C)(O)CC4)nc(C4=CCOCC4)cn23)ccc1C(=O)NC1CC1` (centres unmarked) [Example 6-8, N-cyclopropyl-4-[6-(3,6-dihydro-2H-pyran-4-yl)-8-{[(4-hydroxy-4-methylcyclohexyl)methyl]amino}imidazo[1,2-a]pyrazin-3-yl]-2-methylbenzamide]: the concentration for half-maximal inhibition (IC50) worked out at 11.1 nM.

For `Cc1cc(-c2cnc3c(NCC4CCN(C)C4)nc(C4=CCOCC4)cn23)ccc1C(=O)NC1CC1` (centres unmarked) [Example 6-9, N-cyclopropyl-4-[6-(3,6-dihydro-2H-pyran-4-yl)-8-{[(1-methyl-pyrrolidin-3-yl)methyl]amino}imidazo[1,2-a]pyrazin-3-yl]-2-methylbenzamide], the IC50 turned out to be 77.6 nM.

In the case of `Cc1cc(-c2cnc3c(NCC4CCOC4)nc(C4=CCOCC4)cn23)ccc1C(=O)NC1CC1` (centres unmarked) [Example 6-11, N-cyclopropyl-4-{6-(3,6-dihydro-2H-pyran-4-yl)-8-[(tetrahydrofuran-3-ylmethyl)amino]imidazo[1,2-a]pyrazin-3-yl}-2-methylbenzamide], the IC50 was 6 nM.

For the compound `Cc1cc(-c2cnc3c(NCCCC(C)O)nc(C4=CCOCC4)cn23)ccc1C(=O)NC1CC1` (centres unmarked) [Example 6-12, N-cyclopropyl-4-{6-(3,6-dihydro-2H-pyran-4-yl)-8-[(4-hydroxypentyl)amino]imidazo[1,2-a]pyrazin-3-yl}-2-methylbenzamide], the IC50 stood at 28 nM.

On to `Cc1cc(-c2cnc3c(NCC4CNC(=O)C4)nc(C4=CCOCC4)cn23)ccc1C(=O)NC1CC1` (centres unmarked) [Example 6-13, N-cyclopropyl-4-[6-(3,6-dihydro-2H-pyran-4-yl)-8-{[(5-oxopyrrolidin-3-yl)methyl]amino}imidazo [1,2-a]pyrazin-3-yl]-2-methylbenzamide], for which the concentration for half-maximal inhibition (IC50) was 29.9 nM.

In the case of `Cc1cc(-c2cnc3c(NCCC4CCN(C)CC4)nc(C4=CCOCC4)cn23)ccc1C(=O)NC1CC1` [Example 6-14, N-cyclopropyl-4-[6-(3,6-dihydro-2H-pyran-4-yl)-8-{[2-(1-methyl-piperidin-4-yl)ethyl]amino}imidazo[1,2-a]pyrazin-3-yl]-2-methylbenzamide], the concentration for half-maximal inhibition (IC50) worked out at 293 nM.

Regarding `Cc1cc(-c2cnc3c(NCC4CC(=O)N(C)C4)nc(C4=CCOCC4)cn23)ccc1C(=O)NC1CC1` (centres unmarked) [Example 6-15, N-cyclopropyl-4-[6-(3,6-dihydro-2H-pyran-4-yl)-8-{[(1-methyl-5-oxopyrrolidin-3-yl)methyl]amino}imidazo[1,2-a]pyrazin-3-yl]-2-methylbenzamide], the IC50 is 44.8 nM.

Turning to `Cc1cc(-c2cnc3c(NCC4CC4C)nc(C4=CCOCC4)cn23)ccc1C(=O)NC1CC1` (centres unmarked) [Example 6-16, N-cyclopropyl-4-[6-(3,6-dihydro-2H-pyran-4-yl)-8-{[(2-methylcyclo-propyl)methyl]amino}imidazo [1,2-a]pyrazin-3-yl]-2-methylbenzamide], the IC50 came out at 8.6 nM.

In the case of `Cc1cc(-c2cnc3c(NCC4CC(F)(F)C4)nc(C4=CCOCC4)cn23)ccc1C(=O)NC1CC1` [Example 6-17, N-cyclopropyl-4-[8-{[(3,3-difluoro-cyclobutyl)methyl]amino}-6-(3,6-dihydro-2H-pyran-4-yl)imidazo [1,2-a]pyrazin-3-yl]-2-methylbenzamide], the IC50 was determined as 10.5 nM.

As to `Cc1cc(-c2cnc3c(NCC4CCC(N(C)C)CC4)nc(C4=CCOCC4)cn23)ccc1C(=O)NC1CC1` (centres unmarked) [Example 6-18, N-cyclopropyl-4-[6-(3,6-dihydro-2H-pyran-4-yl)-8-({[4-(dimethylamino)cyclohexyl]methyl}amino)imidazo[1,2-a]pyrazin-3-yl]-2-methylbenzamide], the 50% inhibitory concentration (IC50) worked out at 199 nM.

On to `CCN1CCC(CNc2nc(C3=CCOCC3)cn3c(-c4ccc(C(=O)NC5CC5)c(C)c4)cnc23)C1` (centres unmarked) [Example 6-19, N-cyclopropyl-4-[6-(3,6-dihydro-2H-pyran-4-yl)-8-{[(1-ethyl-pyrrolidin-3-yl)methyl]amino}imidazo[1,2-a]pyrazin-3-yl]-2-methylbenzamide], for which the IC50 is 338 nM.

Consider `CC(C)CNc1nc(CCC(C)(C)O)cn2c(-c3ccc(C(=O)NC4CC4)cc3)cnc12` [Example 7-1, N-cyclopropyl-4-{6-(3-hydroxy-3-methylbutyl)-8-[(2-methylpropyl)amino]imidazo[1,2-a]pyrazin-3-yl}benzamide], for which the IC50 was found to be 6.9 nM.

Turning to `CC(C)CNc1nc(CCCN(C)C)cn2c(-c3ccc(C(=O)NC4CC4)cc3)cnc12` [Example 7-2, N-cyclopropyl-4-{6-[3-(dimethylamino)propyl]-8-[(2-methylpropyl)amino]imidazo[1,2-a]pyrazin-3-yl}benzamide], the IC50 was found to be 42.2 nM.

As to `CC(C)CNc1nc(CCCO)cn2c(-c3ccc(C(=O)NC4CC4)cc3)cnc12` [Example 7-3, N-cyclopropyl-4-{6-(3-hydroxypropyl)-8-[(2-methylpropyl)amino]imidazo[1,2-a]pyrazin-3-yl}benzamide], the IC50 was determined as 7.2 nM.

On to `CC(C)CNc1nc(C2CCOCC2)cn2c(-c3ccc(C(=O)NC4CC4)cc3)cnc12` [Example 7-4, N-cyclopropyl-4-{8-[(2-methylpropyl)amino]-6-(tetrahydro-2H-pyran-4-yl)imidazo[1,2-a]pyrazin-3-yl}benzamide], for which the IC50 was found to be 1.5 nM.
